Where “and” joins values, the source holds several entries; their conditions need not be identical. Identical values can stand only once. Entries after “also recorded” stand apart in the source; their conditions may differ. One block for each compound: values may come before it.
Columns and labels:
[1] = tested on: primary WT CFTR-expressing HBEs; assay: Ussing chamber Isc, forskolin-stimulated Cl- secretion; format: cell-based, human; details: for effect on the bumetanide-insensitive current: applied after forskolin and bumetanide, VX-445 10 µM, acetazolamide 1 µM
Text: (§1) Primary human bronchial epithelial cells (HBEs) were collected from unused or discarded samples from the Center for Organ Recovery and Education via the University of Pittsburgh Pulmonary, Allergy, Critical Care, and Sleep Medicine Lung Biobank and Repository. All experimental procedures involving the use of HBEs were approved by the institutional review board (IRB STUDY19090084) and the Committee for Oversight of Research and Clinical Training Involving Decedents (CORID number 451) at the University of Pittsburgh. At all times, authors were blind to the identity of HBE donors. HBEs were cultured using the Vertex method ([72]). Studies were carried out on WT CFTR HBEs from 11 ([13]) donors and homozygous F508del/F508del CFTR HBEs from five ([5]) separate donors. HBEs were plated on Costar Transwell permeable supports ([…], 6.5 mm insert, polyester membrane, Corning) and grown at an air–liquid interface for 5+ weeks in HBE differentiation medium containing 2% Ultroser-G. Basolateral media were replaced three times per week. For whole-cell patch-clamp studies, HBEs were maintained in BronchiaLife airway media (LifeLine Cell Technology, LS-1047) and plated onto poly-L-lysine-coated coverslips (see below).
(§2) Costar Transwell inserts were mounted in a modified Ussing chamber (P2300, Physiologic Instruments) and the monolayers continuously short-circuited (VCC MC8, Physiologic Instruments) by forcing the transepithelial voltage to 0 mV. Short-circuit current (Isc) measurements were taken in symmetric solutions, containing (in mM): 120 NaCl, 25 NaHCO3, 3.3 KH2PO4, 0.8 K2HPO4, 1.2 CaCl2, 1.2 MgCl2, and 10 glucose. The pH of the solution is 7.4 when gassed with 95% O2–5% CO2 at 37°C. Compounds were added cumulatively following the establishment of a new stable current response. Amiloride was added to the apical membrane, while all other compounds were added to both membranes due to their lipophilic nature. In all experiments, 10 µM amiloride was used to inhibit sodium absorption. Percent inhibition was calculated as the change in Isc (ΔIsc) between the forskolin or DCEBIO stable current level and the Isc following addition of the compound being assessed divided by the ΔIsc between the stable forskolin- or DCEBIO-induced Isc and the Isc following bumetanide addition.

KCa3.1 [2] = target: T1, KCa3.1 (Homo sapiens, UniProt O15554); assay: Whole-cell patch-clamp on HEK cells heterologously expressing KCa3.1; format: cell-based; details: for effect on KCa3.1 current: 10 µM, data not shown
T1 construct: expressed in transfected cells
Protocol: (§3) Our Isc results are consistent with VX-445 inhibiting KCa3.1 in HBEs. To directly assess this possibility, we initially carried out whole-cell patch-clamp studies on undifferentiated HBEs. […] Upon application of 10 µM VX-445, a majority of this current was inhibited, averaging 87 ± 4% (n = 3, P < 0.005; Fig. 3B). A summary of the current–voltage (I–V) relationship—normalized to cell capacitance—is shown in Fig. 3C, which also includes the whole-cell I–V in the presence of Tram-34. […] To ensure isolation of KCa3.1 currents and to more fully characterize this VX-445-dependent inhibition of KCa3.1, we utilized HEK cells heterologously expressing KCa3.1 (HEK-KCa3.1). Initially, we confirmed our results from HBEs, using whole-cell recordings, as above. […] In seven experiments, this inhibition averaged 58 ± 7% (P < 0.005). […] It is well recognized that drugs are carried to their targets in the blood bound to albumin, which ranges from 3.4 to 5.4%. Thus, we determined whether VX-445 (10 µM) would inhibit KCa3.1 expressed in HEK cells in the presence of 3.4% albumin. In four experiments, VX-445 inhibited an average of 51 ± 17% of the whole-cell KCa3.1 current, which is not different from that observed in the absence of albumin. To confirm the direct effect of VX-445 on KCa3.1, we utilized the excised, inside-out patch-clamp technique. The patch was then exposed to DCEBIO (100 µM) to further activate the channels ([34–37])—analogous to our Isc studies in HBEs. […] In three experiments, VX-445 inhibited an average of 63 ± 6% of the KCa3.1 current. Based on these experiments, we determined the apparent inhibitory constant, Ki for VX-445. For these experiments, patches were excised into saturating Ca^2+ (3 µM) to ensure maximal KCa3.1 activation. These studies were carried out in the absence of DCEBIO to eliminate the possibility that the inhibition observed was due to competition for the DCEBIO-binding site.
(§4) HEK cells stably expressing KCa3.1 (IK1, SK4), KCa2.3 (SK3), and KCa2.2 (SK2) were generated and cultured as previously described by us ([37], [66–71]).
(§5) HEK cells expressing the channel of interest were plated onto poly-L-lysine-coated glass coverslips 1–2 days prior to patch-clamp analysis. Electrophysiological recordings in the excised, inside-out, and whole-cell patch-clamp configurations were performed as recently described ([14]). For excised patch-clamp recordings, the pipette solution contained (in mM): 140 K-gluconate, 5 KCl, 1 CaCl2, 1 MgCl2, and 10 HEPES. The pH was adjusted to 7.2 with KOH. The bath solution contained (in mM): 145 K-gluconate, 5 KCl, 1.3 MgCl2, 10 HEPES, and 1 EGTA. Sufficient CaCl2 was added to obtain the desired free Ca^2+ concentration at a pH of 7.2 (adjusted with KOH). When recording KCa3.1 channels, ATP (300 µM) was added to the bath to diminish channel rundown ([73]). All recordings were carried out at a voltage of −100 mV, referenced to the extracellular compartment, as is standard. The apparent Ki and Hill coefficient for each CFTR corrector on KCa3.1, KCa2.3, and KCa2.2 were determined during a continuous recording by step-wise addition of increasing concentrations of compound and fitting the resultant relative remaining current to a Hill equation (Prism v. 10.1.0). The zero current level was determined by the addition of a 0 Ca^2+ solution (zero-added Ca^2+ plus 1 mM EGTA) at the end of the experiment. In the case of KCa3.1, TRAM-34, a known inhibitor of KCa3.1 ([45]), was used to confirm expression of the channel. For whole-cell experiments, pipettes contained (in mM): 145 K-gluconate, 10 EGTA, 7.5 CaCl2, 2 MgCl2, 3 mM NaATP, and 10 HEPES. The bath solution contained (in mM): 140 K-gluconate, 5 KCl, 1.0 MgCl2, 10 HEPES, and 2 CaCl2. Current–voltage relationships were determined by stepping from a holding potential of −80 mV to +80 mV in 20 mV increments for 400 ms. […]

[3] = tested on: BKCa (KCa1.1, KCNMA1) channels; design: method as in PMID 38954478; details: primary HBEs and HEK cells heterologously expressing the channel; cited from earlier work
WT CFTR HBEs = assay: Ussing chamber Isc, DCEBIO-induced Cl- secretion; format: cell-based, human
Text: as §1, §2

[4] = target: T2, endogenous KCa3.1 in WT CFTR-expressing HBEs (Homo sapiens, UniProt O15554); assay: Whole-cell patch-clamp on undifferentiated HBEs; format: cell-based; details: TRAM-34 subsequent to VX-445, Fig 3C single cells
T2 construct: endogenous in cells; host or cells: undifferentiated primary human bronchial epithelial cells (WT CFTR donors)
Protocol: as §3
Primary human bronchial epithelial cells (HBEs) were collected from unused or discarded samples from the Center for Organ Recovery and Education via the University of Pittsburgh Pulmonary, Allergy, Critical Care, and Sleep Medicine Lung Biobank and Repository. All experimental procedures involving the use of HBEs were approved by the institutional review board (IRB STUDY19090084) and the Committee for Oversight of Research and Clinical Training Involving Decedents (CORID number 451) at the University of Pittsburgh. At all times, authors were blind to the identity of HBE donors. HBEs were cultured using the Vertex method ([72]). Studies were carried out on WT CFTR HBEs from 11 ([13]) donors and homozygous F508del/F508del CFTR HBEs from five ([5]) separate donors. […]

KCa3.1 [5] = target: T1, KCa3.1; assay: Excised inside-out patch-clamp on HEK-KCa3.1; format: biochemical; details: TRAM-34 3 µM after DCEBIO and VX-445 10 µM
Protocol: as §3, §4, §5

SMILES: CC(C)(O)[C@H]1O[C@H]2CC[C@@]3(C)[C@@](O)(CC[C@H]4Cc5c([nH]c6ccccc56)[C@@]43C)C2=CC1=O [paxilline]
Isc in the presence of paxilline ([1]; Fig 2B, single filters, paxilline 10 µM after forskolin and VX-445): 12 and 11 and 15 and 20 and 21 and 19 and 14
effect on Isc subsequent to VX-445-induced decrease ([1]; paxilline 10 µM after forskolin and VX-445 10 µM): had no effect

SMILES: CCCCNc1cc(C(=O)O)cc(S(N)(=O)=O)c1Oc1ccccc1 [bumetanide]
Isc in the presence of bumetanide ([1]; Fig 1F, single filters, after forskolin): 21 and 18 and 15 and 17 and 14 and 19 and 23 and 20

SMILES: CC(=O)Nc1nnc(S(N)(=O)=O)s1 [acetazolamide]
effect on the bumetanide-insensitive current [1]: partially inhibited the remaining current

SMILES: CC(C)(CO)c1cc2cc(NC(=O)C3(c4ccc5c(c4)OC(F)(F)O5)CC3)c(F)cc2n1C[C@@H](O)CO [VX-661, tezacaftor]
effect on forskolin-mediated Cl- secretion ([1]; VX-661 10 µM): had no effect
effect on KCa3.1 current (KCa3.1 [2]): had no effect; also recorded: failed to inhibit
effect on BKCa [3]: had no effect

SMILES: Clc1ccccc1C(c1ccccc1)(c1ccccc1)n1cccn1 [TRAM-34]
effect on forskolin-stimulated Isc ([1]; TRAM-34 5 µM, no VX-445): inhibits a portion of the current
effect on forskolin-stimulated Isc following VX-445 ([1]; TRAM-34 after VX-445 10 µM): failed to inhibit additional current
effect on the bumetanide-insensitive current [1]: failed to decrease
effect on DCEBIO-stimulated Isc (WT CFTR HBEs; TRAM-34 5 µM, DCEBIO 100 µM, no VX-445): inhibits the DCEBIO-stimulated Isc response
effect on DCEBIO-stimulated Isc following VX-445 (WT CFTR HBEs; TRAM-34 after DCEBIO and VX-445 10 µM): had little effect
whole-cell current normalized to cell capacitance ([4]; -40 mV): 0.875 and 0.576
whole-cell current normalized to cell capacitance ([4]; -60 mV): 0.344 and 0.305
whole-cell current normalized to cell capacitance ([4]; -80 mV): 0.0478 and 0.0385
effect on current remaining after VX-445 (KCa3.1 [2]; TRAM-34 1 µM after VX-445 10 µM): inhibited the remainder of the current
effect on current remaining after VX-445 (KCa3.1 [5]): inhibited the remainder of the current

SMILES: C=C[C@@]1(C)CC(=O)[C@]2(O)[C@@]3(C)[C@@H](O)CCC(C)(C)[C@@H]3[C@H](O)[C@H](OC(C)=O)[C@@]2(C)O1 [forskolin]
Isc in the presence of forskolin ([1]; Fig 1F, single filters): 31 and 30 and 24 and 28 and 26 and 34 and 27 and 32
Isc in the presence of forskolin ([1]; Fig 2B, single filters): 17 and 18 and 23 and 24 and 19 and 21

SMILES: CC(C)(C)c1cc(C(C)(C)C)c(NC(=O)c2c[nH]c3ccccc3c2=O)cc1O [VX-770, ivacaftor]
effect on BKCa [3]: had no effect

effect on KCa3.1 current (KCa3.1 [2]): failed to inhibit
SMILES: Cc1ccc(NC(=O)C2(c3ccc4c(c3)OC(F)(F)O4)CC2)nc1-c1cccc(C(=O)O)c1 [VX-809]

inhibition at 10 µM (KCa3.1 [2]; HEK293, VX-121 10 µM, three experiments, read-out: inhibition of whole-cell KCa3.1 current): 85 ± 8%
SMILES: CC1(C)C[C@@H]2CCCNc3cccc(n3)S(=O)(=O)NC(=O)c3ccc(-n4ccc(OCCC5C6(CC6)C56CC6)n4)nc3N1C2 [VX-121, vanzacaftor]
effect on BKCa [3]: act as direct potentiators

Reference: paper PMC12275099, “VX-445 (elexacaftor) inhibits chloride secretion across human bronchial epithelial cells by directly blocking KCa3.1 channels” (PNAS Nexus, 2025)
